Laboratory results taken from ChEMBL document CHEMBL1146503, “Effects of natural flavones and flavonols on the kinase activity of Cdk5” (J Nat Prod, 2004).

Target: Cyclin-dependent kinase 5 (Rattus norvegicus, UniProt Q03114)
Test: Inhibition of rat fetal brain CDK5 assessed as phosphorylated histone H1 levels by immuno-precipitation
Assay type: tissue-based

Cyclin-dependent kinase 5, sequence (Q03114 whole entry): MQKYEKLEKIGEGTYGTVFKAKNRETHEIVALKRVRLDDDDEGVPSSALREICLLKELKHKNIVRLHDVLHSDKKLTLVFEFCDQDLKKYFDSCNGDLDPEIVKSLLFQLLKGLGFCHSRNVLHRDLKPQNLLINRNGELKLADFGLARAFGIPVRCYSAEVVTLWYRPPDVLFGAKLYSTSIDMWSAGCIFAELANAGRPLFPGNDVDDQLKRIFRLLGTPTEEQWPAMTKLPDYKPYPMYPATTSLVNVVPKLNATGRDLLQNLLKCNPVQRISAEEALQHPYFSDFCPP

Row | SMILES | EC50 [µM]
1 | COc1cc2oc(-c3ccccc3)cc(=O)c2c(OC)c1O | > 250
2 | COc1cc(-c2oc3c(OC)c(OC)c(OC)c(O)c3c(=O)c2OC)ccc1O | > 25
3 | O=c1cc(-c2ccc(O)cc2)oc2cc(O)cc(O)c12 [APIGENIN] | > 250
4 | COc1c(O)cc2oc(-c3ccc(O)c(O)c3)cc(=O)c2c1O [EUPAFOLIN] | 40
5 | COc1c(O)cc2oc(-c3ccc(O)cc3)cc(=O)c2c1O [HISPIDULIN] | 19.1
6 | O=c1c(O)c(-c2ccc(O)cc2)oc2cc(O)cc(O)c12 [KAEMPFEROL] | 66.1
7 | O=c1cc(-c2ccc(O)c(O)c2)oc2cc(O)cc(O)c12 [LUTEOLIN] | > 250
8 | O=c1c(O)c(-c2cc(O)c(O)c(O)c2)oc2cc(O)cc(O)c12 [MYRICETIN] | 71.1
